18 molecules from patent publication US6953677B2, “Recombinant L-N-carbamoylase from Arthrobacter aurescens and method of producing L-amino acids therewith” (Degussa AG, priority 1998, dated 2005) can be followed below.

In series [1] the target is rec-L-N-carbamoylase from A.a. (Paenarthrobacter aurescens, UniProt Q9F464). Format: biochemical, Arthrobacter aurescens. To be noted: pH 8.5, homogeneously purified enzyme. How it is done:
(§1) The substrate specificity of the carbamoylase was investigated with homogeneously purified enzyme. The latter was obtained after cell maceration and ion exchange chromatography on Streamline-DEAE- and MonoQ media. A solution of the particular substrate was produced in a concentration of 1.8 mM (exception N-carbamoyl-L-methionine: 50 mM) in 0.1 M TRIS-HCl, pH 8.5 and used instead of the standard substrate in the standard activity test. Instead of the trichloroacetic acid (TCA) used in the standard test for stopping, in the case of the substrates N-formyl-D,L-tryptophane, N-carbamoyl-L-thienylalanine and N-acetyl-D,L-tryptophane heat denaturation was used to terminate the reaction (incubation for 10 min in a boiling water bath) and in the case of the substrate N-carbamoyl-D,L-phenylalanine, addition of 900 μl methanol to 100 μl assay solution was used. The concentration of the amino acid was subsequently determined either by HPLC or colorimetrically after reaction with ninhydrin.
(§2) 5 ml of a cell culture induced with rhamnose are centrifuged at 3000 rpm for 5 min in a Heraeus Megafuge, washed with 5 ml buffer (200 mM TRIS-HCl, pH 7.0), re-centrifuged, taken up in 1 ml buffer (200 mM TRIS-HCl, 0.1 mM MnCl2 pH 7.0) and macerated by ultrasound (Ultrasonics Sonicator, microtip, 2×30 sec, duty cycle 50%). Cell fragments are removed by centrifugation in an Eppendorf centrifuge at 13000 rpm, 10 min. The supernatant, designated as raw extract, is used for the enzyme measurement. 100 μl raw extract or cleaned-up enzyme is mixed with 800 μl 2 mM N-carbamoyl amino acid preheated to 37° C. in 100 mM TRIS-HCl, pH 8.5 and incubated 10 min at 37° C. The reaction is stopped by the addition of 400 μl trichloroacetic acid. The precipitated protein is separated by centrifugation in an Eppendorf centrifuge at 13000 rpm for 10 min. The supernatant is subsequently measured in an HPLC or calorimetrically (ninhydrin). The separation of the reaction mixture takes place in an HPLC with an RP-18 column, the mobile solvent is 0.3% (V/V) phosphoric acid, 80% methanol, flow rate 1.0 ml/min. The detection takes place by measuring the UV absorption at a wavelength of 280 nm.

Substrate in series [2]: NC(=O)NC(Cc1ccccc1)C(=O)O
The experiment in a line: purified protein, by the assay type. Format: biochemical, Arthrobacter aurescens. To be noted: other: homogeneously purified enzyme, 0.1 M TRIS-HCl, pH 8.5, 37.0 °C. How it is done:
as §1, §2

Substrate in series [3]: NC(=O)N[C@@H](Cc1c[nH]c2ccccc12)C(=O)O
The experiment in a line: purified protein, by the assay type. Format: biochemical, Arthrobacter aurescens. To be noted: other: homogeneously purified enzyme, 0.1 M TRIS-HCl, pH 8.5, 37.0 °C. As to the method:
as §1, §2

Substrate in series [4]: NC(=O)N[C@@H](Cc1ccc(O)cc1)C(=O)O
The experiment in a line: purified protein, by the assay type. Format: biochemical, Arthrobacter aurescens. To be noted: other: homogeneously purified enzyme, 0.1 M TRIS-HCl, pH 8.5, 37.0 °C. How it is done:
as §1, §2

Substrate in series [5]: NC(=O)N[C@@H](Cc1cccs1)C(=O)O
Briefly: purified protein, by the assay type. Format: biochemical, Arthrobacter aurescens. To be noted: other: homogeneously purified enzyme, 0.1 M TRIS-HCl, pH 8.5, 37.0 °C. How it is done: as §1, §2

Substrate in series [6]: O=CNC(Cc1c[nH]c2ccccc12)C(=O)O
Briefly: purified protein, by the assay type. To be noted: other: homogeneously purified enzyme, 0.1 M TRIS-HCl, pH 8.5, 37.0 °C. Format: biochemical, Arthrobacter aurescens. How it is done: as §1, §2

Series [7] can be described thus: Temperature stability of the rec-L-N-carbamoylase (storage, then standard activity test). Format: physicochemical, Arthrobacter aurescens. As to the method:
FIG. 2: Standard activity assay of the isolated recombinant Arthrobacter aurescens N-L-carbamoylase enzyme isolated from E.coli. The N-L-carbamoylase was isolated after cell maceration and ion exchange chromatography on Streamline DEAE and MonoQ media. N-L-carbamoylase activity was determined by reacting with the substrate N-carbamoyl-L-tryptophane over 100 hours wherein the concentration of the amino acid tryptophan was determined in order to calculate N-L carbamoylase activity. The N-L-carbamoylase enzyme activity was measured and reached a relative activity level of around 100% between hours 40 and […] of incubation 37° C.
[…] The standard test for determination of activity was carried out at time intervals of 1-100 h.
as §2

The nature of series [8]: N-L-carbamoylase activity of raw extract of rhamnose-induced E. coli JM109/pAW178-2. Format: biochemical, Arthrobacter aurescens. To be noted: 9 h after rhamnose induction, approximately maximum; N-carbamoyl-L-tryptophane as substrate. As to the method: 1 ml of an overnight culture of E. coli JM109/pAW178-2 (FIG. 1) in LBamp is added into 100 ml fresh LBamp medium in a one-liter Erlenmeyer flask and the latter incubated at 30° C. in a water bath under agitation (200 rpm). 1 ml of a 20% rhamnose solution is added to the culture at an optical density of the culture of 0.5 (measured at a wavelength of 600 nm in a photometer) (end concentration […]) and the culture incubated further. After a further 9 h incubation approximately the maximum of the N-L-carbamoylase activity is achieved, a specific activity of 1.8 units/mg raw extract, measured with N-carbamoyl-L-tryptophane as substrate. No activity was found in cultures which had not been induced with rhamnose.
5 ml of a cell culture induced with rhamnose are centrifuged at 3000 rpm for 5 min in a Heraeus Megafuge, washed with 5 ml buffer (200 mM TRIS-HCl, pH 7.0), re-centrifuged, taken up in 1 ml buffer (200 mM TRIS-HCl, 0.1 mM MnCl2 pH 7.0) and macerated by ultrasound (Ultrasonics Sonicator, microtip, 2×30 sec, duty cycle 50%). Cell fragments are removed by centrifugation in an Eppendorf centrifuge at 13000 rpm, 10 min. The supernatant, designated as raw extract, is used for the enzyme measurement. […] The supernatant is subsequently measured in an HPLC or calorimetrically (ninhydrin). […]

Setting [9] is: substrate 1.8 mM in 0.1 M TRIS-HCl, n.n. = can not be detected.

Numbering of substitutions follows the chain as printed. Where two headings read alike, the source gives them in different places.

Take `CC(=O)NC(Cc1c[nH]c2ccccc12)C(=O)O` (racemic) [N-acetyl-D,L-tryptophane]: the Activity % result in series [1] (setting [9]) is “n.n”.
On the same count and under the same terms, to `NC(=O)NC(CC(=O)O)C(=O)O` (racemic) [N-carbamoyl-D,L-aspartate] belongs “n.n”; to `NC(=O)NC(Cc1ccccc1)C(=O)O` (racemic) [N-carbamoyl-D,L-phenylalanine], 97%.
The same measure, in the same setting: to `O=CNC(Cc1c[nH]c2ccccc12)C(=O)O` (racemic) [N-formyl-D-L-tryptophane] belongs 97%; to `NC(=O)N[C@H](Cc1ccccc1)C(=O)O` [N-carbamoyl-D-phenylalanine], “n.n”; to `NC(=O)N[C@@H](C(=O)O)c1ccccc1` [N-carbamoyl-D-phenylglycine], “n.n”.
For `NC(=O)N[C@H](Cc1c[nH]c2ccccc12)C(=O)O` [N-carbamoyl-D-tryptophane], in series [1] (setting [9]), the Activity % result is given as “n.n”.
Still for that read-out and setting: the entry for `N=C(N)NCCC[C@H](NC(N)=O)C(=O)O` [N-carbamoyl-L-arginine] is “n.n”.
As to `NC(=O)N[C@@H](CCC(=O)O)C(=O)O` [N-carbamoyl-L-glutamate], the Activity % result in series [1] (setting [9]) was “n.n”.
`CSCC[C@H](NC(N)=O)C(=O)O` [N-carbamoyl-L-methionine] yielded an Activity % in series [1] (substrate 50 mM (exception) in 0.1 M TRIS-HCl) of 17%.
Regarding `NC(=O)N[C@H](C(=O)O)c1ccccc1` [N-carbamoyl-L-phenylglycine], the Activity % result in series [1] (setting [9]) is “n.n”.
Still for that read-out and setting: to `NC(=O)N[C@@H](Cc1cccs1)C(=O)O` [N-carbamoyl-L-thienylalanine] belongs 314%; to `NC(=O)N[C@@H](Cc1c[nH]c2ccccc12)C(=O)O` [N-carbamoyl-L-tryptophane], 100%.
In series [1] (setting [9]), `NC(=O)N[C@@H](Cc1ccc(O)cc1)C(=O)O` [N-carbamoyl-L-tyrosine] came in with an Activity % of 126%.
Same read-out and setting: to `NC(=O)NCCC(=O)O` [N-carbamoyl-β-alanine] belongs “n.n”; to `O=CN[C@@H](CC(=O)O)C(=O)O` [N-formyl-L-aspartate], “n.n”.

B1: rec-L-N-carbamoylase from A.a. (Paenarthrobacter aurescens) (protein)
chain: MTLQKAQAERIEKEIRELSRFSAEGPGVTRLTYTPEHAAARETLIAAMKAAALSVREDALGNIIGRREGTDPELPAIAVGSHFDSVRNGGMFDGTAGVVCALEAARVMLENGYVNRHPFEFIAIVEEEGARFSSGMLGGRAIAGLVADRELDSLVDEDGVSVRQAATAFGLKPGELQAAARSAADLRAFIELHIEQGPILEQEQIEIGVVTSIVGVRALRVAVKGRSDHAGTTPMHLRQDALVPAALMVREVNRFVNEIADGTVATVGHLTVAPGGGNQVPGEVDFTLDLRSPHEESLRVLIDRISVMVGEVASQAGVAADVDEFFNLSPVQLAPTMVDAVREAASALQFTHRDISSGAGHDSMFIAQVTDVGMVFVPSRAGRSHVPEEWTDFDDLRKGTEVVLRVMKALDR
For the molecule B1, the Km in series [2] was 0.7 MM; in series [3] it was 0.12 MM; in series [4] it was 0.3 MM; in series [5], 2.3 MM; in series [6], 8.5 MM.

B2: rec-carbamoylase: recombinant L-N-carbamoylase from Arthrobacter aurescens (hyuC gene, SEQ ID NO:2) expressed in E. coli (protein, listed as Arthrobacter aurescens)
chain: B1 chain with E9A
Turning to B2, the “activity on storage at 37° C.” value in series [7] (37° C., 100 h, homogeneously purified recombinant enzyme) was “almost unchanged”. Further, the “duration of activity at 50° C.” value in series [7] (50° C.) is on record as “hours”. The relative activity level entry in series [7] (between hours 40 and 140 of incubation 37° C., substrate N-carbamoyl-L-tryptophane (FIG. 2)) is reported as “around 100%”. Also, in series [8], the specific activity came out at 1.8 units/mg raw extract.
